Measured values as given in ChEMBL document CHEMBL5136983, “How the structural properties of the indole derivatives are important in kinase targeted drug design?: A case study on tyrosine kinase inhibitors” (Bioorg Med Chem, 2022).
pIC50: −log10 of the molar value.

Target: T1, Epidermal growth factor receptor (Homo sapiens, UniProt P00533)
T1 sequence (P00533 whole entry): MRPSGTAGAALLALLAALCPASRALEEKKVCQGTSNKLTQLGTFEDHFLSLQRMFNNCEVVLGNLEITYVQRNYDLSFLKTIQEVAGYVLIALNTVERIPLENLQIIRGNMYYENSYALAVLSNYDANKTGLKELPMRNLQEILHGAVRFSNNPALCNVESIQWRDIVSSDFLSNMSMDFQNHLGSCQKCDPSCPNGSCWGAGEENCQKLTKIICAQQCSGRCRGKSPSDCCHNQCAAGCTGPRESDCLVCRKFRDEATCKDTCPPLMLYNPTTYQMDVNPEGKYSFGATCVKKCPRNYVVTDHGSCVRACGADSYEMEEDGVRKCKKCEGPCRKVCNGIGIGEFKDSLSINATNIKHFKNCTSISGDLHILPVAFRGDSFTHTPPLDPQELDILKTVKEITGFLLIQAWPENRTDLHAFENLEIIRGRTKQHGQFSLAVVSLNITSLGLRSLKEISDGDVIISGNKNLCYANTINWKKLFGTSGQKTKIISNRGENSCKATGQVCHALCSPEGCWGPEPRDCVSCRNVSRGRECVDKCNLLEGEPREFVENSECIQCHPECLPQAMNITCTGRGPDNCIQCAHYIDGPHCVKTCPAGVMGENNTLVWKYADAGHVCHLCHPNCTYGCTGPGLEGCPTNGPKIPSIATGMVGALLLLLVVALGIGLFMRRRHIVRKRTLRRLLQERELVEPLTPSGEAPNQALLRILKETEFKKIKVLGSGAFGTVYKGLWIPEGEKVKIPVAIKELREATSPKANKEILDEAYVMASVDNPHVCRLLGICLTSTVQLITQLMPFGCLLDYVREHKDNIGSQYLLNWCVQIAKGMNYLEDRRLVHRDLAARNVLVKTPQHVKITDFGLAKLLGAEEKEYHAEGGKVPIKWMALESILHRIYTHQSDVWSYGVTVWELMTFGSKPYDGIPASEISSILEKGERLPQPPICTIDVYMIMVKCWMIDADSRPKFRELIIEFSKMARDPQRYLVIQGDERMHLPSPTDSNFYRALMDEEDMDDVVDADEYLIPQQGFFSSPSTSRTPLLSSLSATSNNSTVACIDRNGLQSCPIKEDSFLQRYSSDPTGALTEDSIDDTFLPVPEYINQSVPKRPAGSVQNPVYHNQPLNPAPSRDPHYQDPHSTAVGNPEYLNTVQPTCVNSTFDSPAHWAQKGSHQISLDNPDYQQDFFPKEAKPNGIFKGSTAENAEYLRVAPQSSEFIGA
Assay: Inhibition of EGFR in human A-431 cell membrane vesicles using phospholipase C-gamma-1 as substrate incubated for 10 mins by scintillation counter method
Format: cell membranes, Membrane vesicle
`CN(C)CCNc1ncnc2c1[nH]c1ccccc12` gave a pIC50 of less than 5.00. `c1ccc2c(c1)[nH]c1c(NC3CCCCC3)ncnc12` gave a pIC50 of less than 5.00.

Tested on: not listed separately
Assay: Inhibition of v-src (unknown origin)
In the case of `NC(Cc1c(SSc2[nH]c3ccccc3c2CC(N)C(=O)NCc2ccccc2)[nH]c2ccccc12)C(=O)NCc1ccccc1` (stereo unspecified), the pIC50 was 5.15. Work on `CCN(CC)CCn1c([Se][Se]c2c(C(=O)NC)c3ccccc3n2CCN(CC)CC)c(C(=O)NC)c2ccccc21` yielded a pIC50 of 5.77. `CNC(=O)c1c(SSc2c(C(=O)NC)c3ccccc3n2C)n(C)c2ccccc12` showed a pIC50 of 5.22. Molecule `CN(C)CCNC(=O)c1c([Se][Se]c2c(C(=O)NCCN(C)C)c3ccccc3n2C)n(C)c2ccccc12` has a pIC50 of 5.74. Molecule `Cn1c([Se][Se]c2c(C(=O)OC(C)(C)C)c3ccccc3n2C)c(C(=O)OC(C)(C)C)c2ccccc21` has a pIC50 of 5.82. `CNC(=O)c1c([Se][Se]c2c(C(=O)NC)c3ccccc3n2C)n(C)c2ccccc12` showed a pIC50 of 6.40. `NC(Cc1c([Se][Se]c2[nH]c3ccccc3c2CC(N)C(=O)NCc2ccccc2)[nH]c2ccccc12)C(=O)NCc1ccccc1` (stereo unspecified) showed a pIC50 of 5.70.

Tested on: HeLa
Assay: Antiproliferative activity against human HeLa cells assessed as cell growth inhibition
Format: functional, cell-based
For `CCn1c(C)c(C(=O)NCc2ccc(F)cc2)c2cc(OCC(=O)NCCOc3ccccc3OC)ccc21`, the pIC50 was 5.17.

Tested on: not listed separately
Assay: Antiproliferative activity against mouse Swiss-3T3 cells assessed as cell growth inhibition incubated for 72 hrs by cell counter method
Format: toxicity, cell-based
With `Cn1c(SSc2c(C(=O)Nc3ccccc3)c3c(O)cccc3n2C)c(C(=O)Nc2ccccc2)c2c(O)cccc21` the IC50 at 72 h was 1900 nM.

Target: T1, Epidermal growth factor receptor
Assay: Inhibition of EGFR derived from human A-431 cells using copolymer of Glu/Ala/Tyr as substrate by scintillation counting method
`Cc1ccc2c(C(=O)Nc3ccccc3)c(SSc3c(C(=O)Nc4ccccc4)c4ccc(C)cc4n3C)n(C)c2c1` gave a pIC50 of less than 4.00. With `Cn1c(SSc2c(C(=O)Nc3ccccc3)c3c(O)cccc3n2C)c(C(=O)Nc2ccccc2)c2c(O)cccc21` the pIC50 was less than 4.00. `Cc1ccc2c(c1)c(C(=O)Nc1ccccc1)c(SSc1c(C(=O)Nc3ccccc3)c3cc(C)ccc3n1C)n2C` showed a pIC50 of less than 4.00.

Target: T1, Epidermal growth factor receptor
Description: Inhibition of EGFR derived from human A-431 cell membrane vesicles using copolymer of Glu/Ala/Tyr as substrate by scintillation counting method
Work on `O=C(CCc1c(SSc2[nH]c3ccccc3c2CCC(=O)Nc2ccccc2)[nH]c2ccccc12)Nc1ccccc1` yielded a pIC50 of 6.07.

Tested on: SW480
Assay: Antiproliferative activity against human SW480 cells assessed as cell growth inhibition
Format: functional, cell-based
In the case of `CCn1c(C)c(C(=O)NCc2ccc(F)cc2)c2cc(OCC(=O)NCCOc3ccccc3OC)ccc21`, the pIC50 was 4.88.

Target: T2, Proto-oncogene tyrosine-protein kinase Src (Homo sapiens, UniProt P12931)
T2 sequence (P12931 2-536 limits assumed): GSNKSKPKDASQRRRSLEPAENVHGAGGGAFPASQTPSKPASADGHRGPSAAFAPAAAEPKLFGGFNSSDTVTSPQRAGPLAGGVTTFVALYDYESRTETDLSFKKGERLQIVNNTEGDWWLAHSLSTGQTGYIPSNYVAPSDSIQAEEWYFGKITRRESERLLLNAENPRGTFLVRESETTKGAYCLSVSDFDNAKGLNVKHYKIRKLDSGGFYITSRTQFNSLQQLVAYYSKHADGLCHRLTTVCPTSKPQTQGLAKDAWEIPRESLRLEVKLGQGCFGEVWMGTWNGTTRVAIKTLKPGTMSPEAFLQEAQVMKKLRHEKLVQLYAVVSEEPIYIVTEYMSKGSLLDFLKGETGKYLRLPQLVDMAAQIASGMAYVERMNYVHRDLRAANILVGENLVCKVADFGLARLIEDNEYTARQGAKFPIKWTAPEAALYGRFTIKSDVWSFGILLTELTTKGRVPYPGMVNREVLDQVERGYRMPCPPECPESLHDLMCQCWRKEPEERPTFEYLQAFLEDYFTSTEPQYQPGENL
Assay: Inhibition of p60 c-src (unknown origin)
Molecule `O=C(OCCN1CCCCC1)c1cc2ccccc2n1Cc1ccccc1` has a pIC50 of 5.87.

Tested on: not listed separately
Assay: Inhibition of PDGFR (unknown origin)
Design: species or system Homo sapiens
For `Cc1ccccc1-c1nc2c(c3c1[nH]c1ccc(OCc4ccccc4)cc13)C(=O)NC2=O`, the pIC50 was less than 4.52. For `COc1ccccc1-c1nc2c(c3c1[nH]c1ccc(OCc4ccccc4)cc13)C(=O)NC2=O`, the pIC50 was less than 4.52. Molecule `COc1ccc2[nH]c3c(-c4ccccc4)nc4c(c3c2c1)C(=O)NC4=O` has a pIC50 of 5.52. Molecule `COc1cc2[nH]c3c(-c4ccccc4)nc4c(c3c2cc1OC)C(=O)NC4=O` has a pIC50 of 6.00. For `Cc1ccccc1-c1nc2c(c3c1[nH]c1ccc(O)cc13)C(=O)NC2=O`, the pIC50 was less than 4.52. Work on `COc1cc2[nH]c3c(-c4ccccc4C)nc4c(c3c2cc1OC)C(=O)NC4=O` yielded a pIC50 of 6.00. In the case of `COc1ccccc1-c1nc2c(c3c1[nH]c1ccc(O)cc13)C(=O)NC2=O`, the pIC50 was 5.00. For `COc1ccc2[nH]c3c(-c4ccccc4)nc4c(c3c2c1)C(=O)N(C)C4=O`, the pIC50 was less than 4.52. Work on `O=C1NC(=O)c2c1nc(-c1ccccc1)c1[nH]c3ccccc3c21` yielded a pIC50 of less than 4.52.

Target: T2, Proto-oncogene tyrosine-protein kinase Src
Assay: Inhibition of src (unknown origin)
In the case of `O=C1/C(=N\c2ccc(Cl)cc2)c2ccccc2N1Cc1ccccc1`, the pIC50 was 3.97.

Tested on: not listed separately
Assay: Inhibition of PDGF-BB-stimulated PDGFR autophosphorylation in mouse Swiss-3T3 cells treated for 2 hrs followed by PDGF-BB stimulation measured after 10 mins by immunoblot analysis
Format: cell-based
`COc1cccc2cc(C(=O)c3cc4ccccc4[nH]3)[nH]c12` gave a pIC50 of less than 4.52. `Cc1ccc2[nH]c(C(=O)c3cc4ccccc4[nH]3)cc2c1` gave a pIC50 of 5.12. In the case of `COc1ccc2[nH]c(C(=O)c3cc4ccccc4[nH]3)cc2c1`, the pIC50 was 6.52. Work on `O=C(c1cc2ccccc2s1)c1cc2ccccc2s1` yielded a pIC50 of less than 4.52. Work on `COc1ccc2cc(C(=O)c3cc4ccccc4[nH]3)[nH]c2c1` yielded a pIC50 of 6.52. Molecule `CN(C)CCC(=O)Oc1ccc2[nH]c(C(=O)c3cc4ccccc4[nH]3)cc2c1` has a pIC50 of 7.00. With `O=C(c1cc2ccccc2[nH]1)c1cc2cc(O)ccc2[nH]1` the pIC50 was 6.70. Work on `COCC(=O)Oc1ccc2[nH]c(C(=O)c3cc4ccccc4[nH]3)cc2c1` yielded a pIC50 of 6.70.

Tested on: A549
Assay: Antiproliferative activity against human A549 cells assessed as cell growth inhibition
Format: functional, cell-based
With `CCn1c(C)c(C(=O)NCc2ccc(F)cc2)c2cc(OCC(=O)NCCOc3ccccc3OC)ccc21` the pIC50 was 5.30.
